The text below walks through data of US6962929B2, “Pentafluorobenzenesulfonamides and analogs” (Tularik Inc., priority 1996, dated 2005).

Where only a bound is given, the exact number is not on record here.

As usually defined, the IC50 is the midpoint of a concentration-inhibition curve. One may read the melting point as the temperature of the solid-liquid transition.

The first data set relates to HeLa cells. The experiment in a line: Inhibition of in vitro growth of HeLa cells (Alamar Blue uptake). The data set is classed as cell-based, human. The settings on record: Homo sapiens; concentration required to inhibit by 50% the uptake of Alamar Blue by HeLa cell cultures. The procedure:
Compounds were evaluated for their ability to inhibit in vitro the growth of HeLa cells, an immortal cell line derived from a human cervical carcinoma commonly used to evaluate the cytotoxicity of potential therapeutic agents. The following data reflect the cytotoxicity of selected examples of the present invention. The values given represent the concentration of test compound required to inhibit by 50% the uptake of Alamar Blue (Biosource International, Camarillo, Calif.) by HeLa cell cultures, which correlates directly with the overall levels of cellular metabolism in the culture, and is generally accepted as an appropriate marker of cell growth. The test was conducted according to the method of S. A. Ahmed et al. (1994) J. Immunol. Methods 170: 211-224.
Consider `O=S(=O)(Nc1cccc(O)c1)c1c(F)c(F)c(F)c(F)c1F` [Example 9, 3-Hydroxy-1-pentafluorophenylsulfonamidobenzene], for which the IC50 was found to be 1 µM. This counts as single-digit micromolar.
`O=S(=O)(Nc1ccc2c(c1)OCCO2)c1c(F)c(F)c(F)c(F)c1F` [Example 3, 1,2-Ethylenedioxy-4-pentafluorophenylsulfonamidobenzene]: the IC50 was determined as 1.5 µM.
With `CN(C)c1cccc(NS(=O)(=O)c2c(F)c(F)c(F)c(F)c2F)c1` [Example 2, 3-(N,N-Dimethylamino)-1-pentafluorophenylsulfonamidobenzene], half-maximal inhibition (IC50) was put at 0.15 µM. This IC50 is about 10-fold lower than that of the compound before.
Regarding `COc1ccc(NS(=O)(=O)c2c(F)c(F)c(F)c(F)c2F)cc1Br` [Example 31, 2-Bromo-1-methoxy4-pentafluorophenylsulfonamidobenzene], the IC50 was determined as 0.5 µM.
With `CN(C)c1ccc(NS(=O)(=O)c2c(F)c(F)c(F)c(F)c2F)cc1` [Example 1, 4-(N,N-Dimethylamino)-1-pentafluorophenylsulfonamidobenzene], the IC50 was < 0.05 µM.
`O=S(=O)(Nc1ccc2c(c1)OCO2)c1c(F)c(F)c(F)c(F)c1F` [Example 4, 1,2-Methylenedioxy-4-pentafluorophenylsulfonamidobenzene] yielded an IC50 of 10 µM.
Turning to `COc1ccc(NS(=O)(=O)c2c(F)c(F)c(F)c(F)c2F)cc1` [Example 8, 4-Methoxy-1-pentafluorophenylsulfonamidobenzene], the IC50 was < 0.05 µM.
On the same count and under the same terms, for `CCN(CC)c1ccc(NS(=O)(=O)c2c(F)c(F)c(F)c(F)c2F)cc1` [Example 12, 4-(N,N-Diethylamino)-1-pentafluorophenylsulfonamidobenzene] the value was 0.15 µM; for `O=S(=O)(Nc1ccc(N2CCOCC2)cc1)c1c(F)c(F)c(F)c(F)c1F` [Example 25, 4-(1-Morpholino)-1-pentafluorophenylsulfonamidobenzene], 10 µM; for `O=S(=O)(Nc1ccc2[nH]ncc2c1)c1c(F)c(F)c(F)c(F)c1F` [Example 15, 5-Pentafluorophenylsulfonamidoindazole], 1 µM.
Same read-out and setting: for `COc1ccc(N(C)S(=O)(=O)c2c(F)c(F)c(F)c(F)c2F)cc1F` [Example 30, 2-Fluoro-1-methoxy-4-(N-methylpentafluorophenylsulfonamido)benzene] the value was 1.5 µM; for `COc1ccc(NS(=O)(=O)c2c(F)c(F)c(F)c(F)c2F)cc1F` [Example 7, 2-Fluoro-1-methoxy-4-pentafluorosulfonamidobenzene], < 0.05 µM; for `CN(C)c1ccc(N(C)S(=O)(=O)c2c(F)c(F)c(F)c(F)c2F)cc1` [Example 17, 4-(N,N-Dimethylamino)-1-(N-methylpentafluorophenylsulfonanido)benzene], 10 µM.
Still for that read-out and setting: for `COc1ccc(NS(=O)(=O)c2c(F)c(F)c(F)c(F)c2F)cc1O` [Example 6, 2-Hydroxy-1-methoxy-4-pentafluorophenylsulfonamidobenzene] the value was < 0.05 µM.

The same data set, now with this note: concentration required to inhibit by 50% the uptake of Alamar Blue by HeLa cell cultures.
`COc1ccc(NS(=O)(=O)c2c(F)c(F)c(F)c(F)c2F)cc1Cl` [Example 32, 2-Chloro-1-methoxy-4-pentafluorophenylsulfonamidobenzene] had an IC50 of 0.1 µM.

A further data set concerns tubulin. The experiment in a line: Irreversible labeling of cellular protein by tritiated compounds in MCF7 cells. The data set is classed as binding. The settings on record: tritiated form; human breast carcinoma MCF7 cells. The source says: Preferred compounds display specific toxicity to various types of cells. Certain compounds and compositions of the present invention exert their cytotoxic effects by interacting with cellular tubulin. For certain preferred compounds and compositions of the present invention, that interaction is covalent and irreversible. […] This protein is a key component of microtubules, which constitute the cytoskeleton and also play critical roles in many other aspects of the cell's physiology, including cell division. The labeling of tubulin by the subject preferred compounds is also shown to be dose-dependent. The site of covalent binding on tubulin is identified as Cysteine-239 on the β-tubulin chain. The same Cys-239 residue is selectively covalently modified when present in a wide variety of Cys-239 containing β-tubulin petides (e.g. Ser-234 to Met-267) provided in vitro or in vivo. One embodiment of these preferred compounds provides the binding mechanism shown in Scheme IV, namely, displacement of the para-fluorine atom by the thiol group of Cys-239.
Consider `[3H]c1cc(OC)c(F)cc1NS(=O)(=O)c1c(F)c(F)c(F)c(F)c1F` [Example 72, 4-[3H]-1-Fluoro-2-methoxy-5-pentafluorosulfonamidobenzene], for which the “labeling of cellular protein” value is “irreversible labeling of only one detectable cellular protein, which was found to be tubulin”.

Tested on in another data set: not given
Test: not given
Details: not given
For `COc1ccc(NS(=O)(=O)c2c(F)c(F)c(F)c(F)c2F)cc1[N+](=O)[O-]` [Example 58, 4-Methoxy-3-nitro-1-pentafluorophenylsulfonamidobenzene], the melting point was 95 to 97 °C.
Compound `COc1ccc(N(CCCC(O)CO)S(=O)(=O)c2c(F)c(F)c(F)c(F)c2F)cc1` (stereo not drawn) [Example 55, 1-(N-(4,5-Dihydroxypentyl)pentafluorophenylsulfonamido)-4-methoxybenzene] displayed a melting point of 116 to 118 °C.
`C=CCN(c1ccc(OC)cc1)S(=O)(=O)c1c(F)c(F)c(F)c(F)c1F` [Example 50, 4-Methoxy-1-(N-(2-propenyl)pentafluorophenylsulfonamido)benzene] returned a melting point of 59 to 60 °C.
`COc1ccc(N(CCCCCO)S(=O)(=O)c2c(F)c(F)c(F)c(F)c2F)cc1` [Example 57, 4-Methoxy-1-(N-(5-hydroxypentyl)pentafluorophenylsulfonamido)benzene] returned a melting point of 96 to 97 °C.
The compound `COc1ccc(NS(=O)(=O)c2c(F)c(F)c(F)c(F)c2F)cc1N` [Example 59, 3-Amino-4-methoxy-1-pentafluorophenylsulfonamidobenzene] yielded a melting point of 142 to 143 °C.
The compound `COc1ccc(N(CC(O)CO)S(=O)(=O)c2c(F)c(F)c(F)c(F)c2F)cc1` (stereo not drawn) [Example 53, 1-(N-(2,3-Dihydroxypropyl)pentafluorophenylsulfonamido)-4-methoxybenzene] came in with a melting point of 130 to 131 °C.
The compound `COc1ccc(N(CCCCO)S(=O)(=O)c2c(F)c(F)c(F)c(F)c2F)cc1` [Example 56, 1-(N-(4-hydroxybutyl)pentafluorophenylsulfonamido)-4-methoxybenzene] came in with a melting point of 88 to 90 °C.
With `O=S(=O)(Nc1ccc(Cl)nc1)c1c(F)c(F)c(F)c(F)c1F` [Example 36, 2-Chloro-5-pentafluorophenylsulfonamidopyridine], the melting point is 144 to 145 °C.
The same measure, in the same setting: for `COc1ccc(NS(=O)(=O)c2c(F)c(F)c(F)c(F)c2F)cc1C(F)(F)F` [Example 49, 4-Methoxy-1-pentafluorophenylsulfonamido-3-trifluoromethylbenzene] the value was 121 to 123 °C; for `COc1ccc(N(CCCCCO)S(=O)(=O)c2c(F)c(F)c(F)c(F)c2F)cc1O` [Example 37, 2-Hydroxy-1-methoxy-4-(N-(5-hydroxypentyl)-pentafluorophenylsulfonamido)benzene], 118 °C; for `COc1ccc(NS(=O)(=O)c2c(F)c(F)c(F)c(F)c2F)cc1` [Example 8, 4-Methoxy-1-pentafluorophenylsulfonamidobenzene], 102 to 103 °C.
Compound `COc1cc(Br)c(NS(=O)(=O)c2c(F)c(F)c(F)c(F)c2F)cc1F` [Example 41, 1-Bromo-4-fluoro-5-methoxy-2-pentafluorophenylsulfonamidobenzene] showed a melting point of 109 °C.
`COc1ccc(N(CCC(O)CO)S(=O)(=O)c2c(F)c(F)c(F)c(F)c2F)cc1` (stereo not drawn) [Example 54, 1-(N-(3,4-Dihydroxybutyl)pentafluorophenylsulfonamido)-4-methoxybenzene]: the melting point is 126 to 128 °C.
`C=CCCN(c1ccc(OC)cc1)S(=O)(=O)c1c(F)c(F)c(F)c(F)c1F` [Example 51, 1-(N-(3-Butenyl)pentafluorophenylsulfonamido)-4-methoxybenzene] returned a melting point of 64 to 66 °C.
